Measurements published in patent publication US20030065039A1, “Biologically active 1,3-bis-aromatic-prop-2-en-1-ones, 1,3-bis-aromatic-propan-1-ones, and 1,3-bis-aromatic-prop-2-yn-1-ones” (Statens Serum Institute, priority 1997, published 2003).
Read-outs that look alike come from different tables or passages of the source. Blank lines part the entries; values can stand above or below the molecule they belong to.

Legend:
[1] = test system: mouse lymphoma tk; experiment: Mouse lymphoma tk assay
Text: Following selection of SBC-35ma (3,5-dimethoxy-4′-allyloxychalcone) as a development candidate, this compound was studied in vitro using the chromosomal aberration assay with CHO cells and the mouse lymphoma tk assay.
In the screening design, three known drugs were included, namely chloroquine, pyrimethamine and artesunate.

[2] = target: T1, succinate dehydrogenase of Helicobacter pylori (Helicobacter pylori, UniProt O06913); assay type: biochemical
T1 construct: endogenous in cells; host or cells: Helicobacter pylori (preparation for the SDH measurement not described; sonicate mentioned for FRD)
T1 sequence (O06913 1-714): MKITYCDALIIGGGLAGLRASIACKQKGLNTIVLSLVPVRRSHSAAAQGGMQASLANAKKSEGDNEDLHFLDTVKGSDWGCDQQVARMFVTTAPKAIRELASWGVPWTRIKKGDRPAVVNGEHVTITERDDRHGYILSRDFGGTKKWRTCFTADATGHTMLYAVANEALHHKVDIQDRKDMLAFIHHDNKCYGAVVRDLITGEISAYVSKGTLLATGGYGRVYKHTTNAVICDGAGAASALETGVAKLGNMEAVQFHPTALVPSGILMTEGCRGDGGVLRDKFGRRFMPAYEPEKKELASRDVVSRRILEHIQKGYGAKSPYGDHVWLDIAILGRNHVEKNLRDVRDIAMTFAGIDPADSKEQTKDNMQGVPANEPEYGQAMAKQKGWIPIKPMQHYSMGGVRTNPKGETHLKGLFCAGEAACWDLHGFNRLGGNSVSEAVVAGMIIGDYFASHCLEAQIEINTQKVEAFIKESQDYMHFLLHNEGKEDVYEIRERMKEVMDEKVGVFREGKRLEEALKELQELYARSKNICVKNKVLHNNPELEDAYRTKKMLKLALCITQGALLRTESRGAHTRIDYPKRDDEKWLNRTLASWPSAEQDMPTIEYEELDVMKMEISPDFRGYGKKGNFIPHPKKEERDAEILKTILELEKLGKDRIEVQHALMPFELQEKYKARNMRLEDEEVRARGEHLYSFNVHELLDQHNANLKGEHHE
T1 sequence (O06914 1-245 partner): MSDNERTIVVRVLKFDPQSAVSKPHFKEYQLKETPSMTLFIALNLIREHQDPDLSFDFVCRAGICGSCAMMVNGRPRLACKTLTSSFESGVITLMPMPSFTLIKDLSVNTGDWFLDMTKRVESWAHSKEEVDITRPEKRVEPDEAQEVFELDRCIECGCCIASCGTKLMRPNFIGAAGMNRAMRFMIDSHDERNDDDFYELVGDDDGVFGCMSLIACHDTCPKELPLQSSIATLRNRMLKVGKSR
T1 sequence (O06912 1-255 partner): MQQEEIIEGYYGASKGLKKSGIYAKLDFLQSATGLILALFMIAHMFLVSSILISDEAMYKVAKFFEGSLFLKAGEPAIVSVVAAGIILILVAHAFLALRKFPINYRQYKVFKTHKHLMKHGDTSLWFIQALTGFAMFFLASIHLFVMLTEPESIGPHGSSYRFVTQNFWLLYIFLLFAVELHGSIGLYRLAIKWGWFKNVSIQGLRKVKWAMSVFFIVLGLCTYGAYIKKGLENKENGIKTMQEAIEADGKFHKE

[3] = target: T2, Helicobacter pylori fumarate reductase (Helicobacter pylori, UniProt O06913); assay type: biochemical
T2 construct: Membrane associated proteins were solubilized from the pellet in 150 mM KCl, pH 7.0; endogenous in cells; host or cells: Helicobacter pylori 007 strain; KCl-solubilised fraction (or sonicate supernatant)
T2 sequence (O06913 1-714): T1 sequence (O06913 1-714)
T2 sequence (O06914 1-245 partner): T1 sequence (O06914 1-245 partner)
T2 sequence (O06912 1-255 partner): T1 sequence (O06912 1-255 partner)
Protocol: 1) Extraction of soluble FRD: Bacteria were harvested by centrifugation at 18,000 g for 10 min at 4° C., and were washed 2 times in an isotonic phosphate saline buffer (50 mM sodium phosphate, pH 7.2, 90 mM NaCl, 5 mM Kcl). Bacteria were lysed in 5 mM Tris-HCl, pH 7.4, for 15 minutes, and centrifuged 18,000 g for 10 minutes. Membrane associated proteins were solubilized from the pellet in 150 mM KCl, pH 7.0, in ice bath for 60 min, and then the supernatant was collected after centrifugation (18,000 g for 10 minutes) for the measurement of FRD activity.
2) Extraction of FRD by sonication: Bacteria were harvested by centrifugation at 18,000 g for 10 min at 4° C., were sonicated, and then the supernatant was collected after centrifugation (18,000 g for 10 minutes) for the measurement of FRD activity.
NADH-FRD activity was determined as the rate of NADH-oxidation upon addition of 1 mM fumarate in the KCl-solubilized fraction or sonicated fraction. The reaction was monitored spectrophotometrically at 340 nm (∈=6.2 mM^−1 cm^−1) using 100 μM NADH and usually 3 mg protein in both reference and sample cuvettes. The measurement was carried out in a Shimadzu UV-190 double-beam spectrophotometer. Protein concentrations were determined using a Bio-Rad protein assay (Bio-Rad Laboratories, 200 Alfred Nobel Dr. Hercules, Calif. 94547, USA).
KCl solubilised fraction of bacteria was incubated with different concentrations of various oxygenated chalcones at 28° C. and the remaining FRD activity was measured. The IC50 values were determined as the concentration at which 50% of the activity was inhibited.

mouse lymphoma tk assay, screening design ([1]; with S9 mix): questionable negative
Molecule: CCN(CC)CCCC(C)Nc1ccnc2cc(Cl)ccc12 (centres unmarked) [Chloroquine, chloroquine]

mouse lymphoma tk assay, screening design [1]: negative
Molecule: CCc1nc(N)nc(N)c1-c1ccc(Cl)cc1 [pyrimethamine]

Molecule: antimycin [reference compound]
activity of succinate dehydrogenase [2]: could no inhibit it
activity of NADH-fumarate reductase [3]: could not inhibit it

mouse lymphoma tk assay, screening design [1]: positive
Molecule: C[C@H]1[C@H](OC(=O)CCC(=O)O)O[C@@H]2O[C@@]3(C)CC[C@H]4[C@H](C)CC[C@@H]1[C@@]24OO3 [artesunate]
